Experimental data from patent US8829014B2, “Thiazole and thiophene analogues, and their use in treating autoimmune diseases and cancers” (Board of Supervisors of Louisiana State University and …, priority 2006, dated 2014).

Key:
[1] = test system: carageenan-induced edema; test: Carrageenan-induced rat paw edema test (anti-inflammatory activity); type: in vivo, Sprague-Dawley rats; settings: rat paw edema, 50 mg/kg, reading 3 hours after carrageenan, [(Control−Test)/Control]×100%; for inhibition in vivo at 50 mg/kg: Rattus norvegicus, po, 3 h, read-out: % Protection P
How it was run: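 Sprague-Dawley rats (male and female, 150-250 g), fasted 18 h, given compound orally at 50 mg/kg in 0.1% sodium CMC (alternatively i.v., s.c. or i.p.). 1% carrageenan injected sub-plantar in right hind paw 1 h later. Paw displacement read again 3 h later; % protection = [(Control−Test)/Control]×100 versus saline control.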

[2] = test system: AP-1; test: PMA-induced AP-1 luciferase expression in HEK cells; type: cell-based; settings: luciferase in HEK/AP-1 cells, as described in Example 398; for inhibition at 1 µM: AP1, 1 uM
[3] = test system: NF-κB; test: TNF-α-induced NF-κB-dependent luciferase expression in HEK cells; type: cell-based; settings: luciferase in HEK/NF-κB cells, as described in Example 398; for inhibition at 1 µM: Homo sapiens, HEK293, 1 uM, read-out: NFkB inhibition @ 1 uM

Compound	% Protection P [1] [%]	AP-1 inhibition @ 1 uM [2]	NFkB inhibition @ 1 uM [3]	inhibition in vivo at 50 mg/kg [1] [%]	inhibition at 1 µM [2] [%]	inhibition at 1 µM [3] [%]
4-{3-(4-Methanesulfonyl-phenyl)-5-[5-methyl-5-(2,2,2-trifluoro-ethoxy)-pyridine-2-yl]-thiophene-2-yl}-morpholine [Example 53]	2.08	25.04	−2.17	–	–	–
Cc1ccc(C(=O)c2cc(-c3ccccc3)c(N3CCOCC3)s2)cc1 [Example 43, (5-Morpholin-4-yl-4-phenyl-thiophen-2-yl)-p-tolyl-methanone]	–	–	–	5.33	27.3	-15.3
COc1ccc(C(=O)c2cc(-c3ccccc3)c(N3CCOCC3)s2)cc1 [Example 44, (4-Methoxy-phenyl)-(5-morpholin-4-yl-4-phenyl-thiophene-2-yl)-methanone]	–	–	–	66.7	55.4	14.9
CSc1ccc(C(=O)c2cc(-c3ccccc3)c(N3CCOCC3)s2)cc1 [Example 47, (4-Methylsulfanyl-phenyl)-(5-morpholin-4-yl-4-phenyl-thiophene-2-yl)-methanone]	–	–	–	5	21.2	-1.5
O=C(c1ccncc1)c1cc(-c2ccccc2)c(N2CCOCC2)s1 [Example 51, (5-Morpholin-4-yl-4-phenyl-thiophene-2-yl)-pyridine-4-yl-methanone]	–	–	–	39.6	16.8	8.36
COc1c(C)cc(-c2cc(-c3ccc(S(C)(=O)=O)cc3)c(N3CCOCC3)s2)nc1C [Example 52, 4-[3-(4-Methanesulfonyl-phenyl)-5-(5-methoxy-4,6-dimethyl-pyridine-2-yl)-thiophene-2-yl]-morpholine]	–	–	–	61.1	-7.93	5.81
COc1ccc(C(=O)c2cc(-c3ccc(S(C)(=O)=O)cc3)c(N3CCOCC3)s2)cc1 [Example 56, [4-(4-Methanesulfonyl-phenyl)-5-morpholin-4-yl-thiophene-2-yl]-(4-methoxy-phenyl)-methanone]	–	–	–	77.8	76.1	18.1
CS(=O)(=O)c1ccc(-c2cc(C(=O)c3ccncc3)sc2N2CCOCC2)cc1 [Example 63, [4-(4-Methanesulfonyl-phenyl)-5-morpholin-4-yl-thiophene-2-yl]-pyridin-4-yl-methanone]	–	–	–	50	5.71	10.5
COc1c(C)cc(C(=O)c2cc(-c3ccc(NC(C)=O)cc3)c(N3CCOCC3)s2)nc1C [Example 64, N-{4-[5-(5-Methoxy-4,6-dimethyl-pyridine-2-carbonyl)2-morpholin-4-yl-thiophene-3-yl]-phenyl}-acetamide]	–	–	–	49	26.2	-4.95
CC(=O)Nc1ccc(-c2cc(C(=O)c3ccccc3)sc2N2CCOCC2)cc1 [Example 66, N-[4-(5-Benzoyl-2-morpholin-4yl-thiophene-3-yl)-phenyl]-acetamide]	–	–	–	40	-2.98	24.2
CC(=O)Nc1ccc(-c2cc(C(=O)c3ccc(Cl)cc3Cl)sc2N2CCOCC2)cc1 [Example 70, N-{4-[5-(2,4-Dichloro-benzoyl)-2-morpholin-4-yl-thiophene-3-yl]-phenyl}-acetamide]	–	–	–	39.2	54	18.6
CSc1ccc(C(=O)c2cc(-c3ccc(NC(C)=O)cc3)c(N3CCOCC3)s2)cc1 [Example 71, N-{4-[5-(4-Methansulfanyl-benzoyl)-2-morpholin-4-yl-thiophene-3-yl]-phenyl}-acetamide]	2.5	27.75	7.6	–	–	–
CC(=O)Nc1ccc(C(=O)c2cc(-c3ccc(NC(C)=O)cc3)c(N3CCOCC3)s2)cc1 [Example 73, N-{4-[5-(4-acetylamino-benzoyl)-2-morpholin-4-yl-thiophene-3-yl]-phenyl}-acetamide]	–	–	–	-23.5	19.9	-28.6
